# Measured values taken from patent publication US9700578B2, “Use of nitrite salts for the treatment of cardiovascular conditions” (The United States of America as represented by the …, priority 2003, dated 2017).
# Columns and labels:
# forearm circulation = settings: concentrations of 200 μM in the forearm, Lauer et al.; cited from earlier work
# [1] = system: deoxygenated erythrocytes
# Method: To determine whether free NO radical can form from the reaction of nitrite and deoxyhemoglobin, 100 and 200 μM nitrite was mixed with 5 mL of 660 and 1000 μM deoxygenated erythrocytes in a light protected reaction vessel purged with helium or oxygen (both 21% and 100%) in-line with a chemiluminescent NO analyzer (Seivers, Boulder, Colo.). After allowing equilibration for 5 minutes, nitrite was injected and the rate of NO production measured. Nitrite was injected into PBS as a control and into 100 μM hemoglobin to control for the hemolysis in the 660 and 1000 μM deoxygenated erythrocyte solutions. At the end of all experiments the visible absorption spectra of the supernatant and erythrocyte reaction mixture was analyzed and hemoglobin composition deconvoluted using a least-squares algorithm.
# To determine whether free NO radical can form from the reaction of nitrite and deoxyhemoglobin, 100 and 200 μM nitrite was reacted with deoxygenated erythrocytes (5 mL volume containing a total of 660 and 1000 μM in heme) in a light protected reaction vessel purged with helium in-line with a chemiluminescent NO analyzer (Seivers, Boulder, Colo.).
# [2] = system: myocardial ischemia-reperfusion injury
# Method: Briefly, mice were anesthetized with intraperitoneal injections of ketamine (50 mg/kg) and pentobarbital sodium (50 mg/kg). The animals were then attached to a surgical board with their ventral side up. […] The mice were supplemented with 100% oxygen via the ventilator side port. A median sternotomy was performed using an electric cautery and the proximal left main coronary artery was visualized and completely ligated with 7-0 silk suture mounted on a tapered needle (BV-1 ethicon). In the initial experiments of myocardial infarct size coronary occlusion was maintained for 30-minutes followed by removal of suture and reperfusion for 24 hours. […] In these experiments, two-dimensional echocardiography was performed at baseline and again at 48 hours of reperfusion.
# At 24 hours of reperfusion, the mice were anesthetized as described previously, intubated, and connected to a rodent ventilator. A catheter (PE-10 tubing) was placed in the common carotid artery to allow for Evans Blue dye injection. A median sternotomy was performed and the left main coronary artery was re-ligated in the same location as before Evans Blue dye (1.2 mL of a 2.0% solution, Sigma Chemical Co.) was injected into the carotid artery catheter into the heart to delineate the ischemic zone from the nonischemic zone. The heart was rapidly excised and serially sectioned along the long axis in five, 1 mm thick sections that were then incubated in 1.0% 2,3,5-triphenyltetrazolium chloride (Sigma Chemical Co.) for 5 minutes at 37° C. to demarcate the viable and nonviable myocardium within the risk zone.
# Ventricular parameters were measured using leading-edge technique. M-mode (sweep speed=200 mm/sec) echocardiograms were captured from parasternal, short and long-axis 2D views of the left ventricle (LV) at the mid-papillary level. LV percent fractional shortening (FS) was calculated according to the following equation: LV % FS=((LVEDD−LVESD)/LVEDD)×100. All data were calculated from 10 cardiac cycles per experiment.
# [3] = system: U46619-induced normoxic pulmonary hypertension; assay type: in vivo; settings: normoxic, U46619 infusion, nebulized nitrite, n=6
# Method: This is a simple, inexpensive, and widely available clinical nebulizer system, though other systems could be used.
# Six additional lambs were studied in order to evaluate the effects of nitrite nebulization on normoxic pulmonary hypertension. Stable normoxic pulmonary hypertension was induced by an infusion of a stable endoperoxide analog of thromboxane (U46619-9,11-dideoxy-11α-epoxymethano-prostaglandin F2α, Cayman Chemicals, Ann Arbor, Mich.). The drug was dissolved in saline and was administered at a rate of 2 μg/kg/min into the femoral venous catheter for 30 minutes. Nitrite was nebulized for inhalation during the last 20 minutes of the infusion (FIG. 11).
# [4] = system: hepatic ischemia-reperfusion injury; assay: Hepatic ischemia-reperfusion (I/R) injury; assay type: in vivo, mice
# Method: Carboxy-PTIO [2-(4-Carboxyphenyl)-4,4,5,5-tetramethylimidazoline-1-oxyl-3-oxide potassium salt], a direct intravascular NO scavenger, was utilized to inhibit NO dependent effects following hepatic I/R injury. Carboxy-PTIO (Alexis Biochemicals) was dissolved in phosphate buffered saline and administered intravenously at a dose of 1 mg/Kg in a volume of 50 μL at 30 minutes prior to hepatic ischemia Zinc(II) Deuteroporphyrin IX-2,4-bisethyleneglycol (ZnDBG) (Alexis Biochemicals), a heme oxygenase-1 inhibitor was injected i.p. at a dose of 10 mg/Kg in a volume of 50 μL at 30 minutes prior to the induction of hepatic ischemia.
# All of the mice utilized in the present studies were C57BL6/J at 8-10 weeks of age obtained from the Jackson Laboratories (Bar Harbor, Me.). In additional experiments of hepatic I/R injury we utilized mice completely deficient (−/−) in endothelial nitric oxide synthase (eNOS). eNOS−/− mice were originally generously donated from Dr. Paul Huang (Mass. General Hospital) and generated in our breeding colony at LSU-Health Sciences Center. eNOS−/− mice were utilized at 8-10 weeks of age.
# The hepatic I/R protocol is depicted in FIG. 6A and has been described previously (Hines et al., Biochem Biophys Res Commun 284:972-976, 2001; Hines et al., Am J Physiol Gastrointest Liver Physiol 284:G536-545, 2001). Mice were anesthetized with the combination of ketamine (100 mg/kg) and zylazine (8 mg/kg) and a midline laparotomy was performed to expose the liver. Mice were then injected with heparin (100 μg/kg, i.p.) to prevent blood clotting. The left lateral and median lobes of the liver were rendered ischemic by completely clamping the hepatic artery and the portal vein using microaneurysm clamps. This experimental model results in a segmental (70%) hepatic ischemia. This method of partial ischemia prevents mesenteric venous congestion by allowing portal decompression throughout the right and caudate lobes of the liver. The liver was then repositioned in the peritoneal cavity in its original location for 45 minutes. The liver was kept moist using gauze soaked in 0.9% normal saline. In addition, body temperature was maintained at 37° C. using a heat lamp and monitoring body temperature with a rectal temperature probe. Sham surgeries were identical except that hepatic blood flow was not reduced with a microaneurysm clamp. The duration of hepatic ischemia was 45 minutes in all experiments, following which the microaneurysm clamps were removed. The duration of hepatic reperfusion was 5 hours in the studies of serum liver transaminase levels (i.e., AST or ALT) and 24 hours for the studies of liver histopathology (such as hepatocellular infarction).
# Serum samples were analyzed for aspartate aminotransferase (AST) and alanine aminotransferase (ALT) using a spectrophotometric method (Sigma Chemical Co., St. Louis, Mo.) (Harada et al., Proc Natl Acad Sci USA 100:739-744, 2003). These enzymes are liver specific and are released from the liver during injury (Hines et al., Biochem Biophys Res Commun 284:972-976, 2001; Hines et al., Am J Physiol Gastrointest Liver Physiol 284:G536-545, 2001). […]
# [5] = system: right middle cerebral artery vasospasm
# Method: An autologous arterial blood clot was placed around the right middle cerebral artery (R MCA) of 14 anesthetized Cynomolgus monkeys at day 0. […] Cerebral arteriogram was performed before clot placement and on days 7 and 14, for assessment of DCV. Arteriographic vasospasm was defined as a 25% or greater reduction in the proximal 14 mm of the R MCA area as measured on the AP projection of the cerebral arteriogram (blinded assessment). Mean arterial blood pressure was measured and blood samples were collected daily from day 0; the cerebral spinal fluid samples were collected on day 0, 7, and 14.
# [6] = 48 nmoles into left ventricular cavity 5 min prior to reperfusion, versus 48 nmoles nitrate
# [7] = 45 minutes ischemia, 48 hours reperfusion
structure (smiles),measurement,setting,value
O=NO [sodium nitrite],vasodilatory effect in human forearm,forearm circulation,no vasodilatory effects
same,NO release on addition to oxygenated erythrocytes,"[1]; 21% and 100% oxygen, versus deoxygenated erythrocytes",significantly less NO
same,rate of NO production in the 5 mL reaction volume,"[1]; 100 and 200 μM nitrite, deoxygenated erythrocytes 660 and 1000 μM in heme, helium purged",47 pM per second
same,NO release into the gas phase in buffer control,"[1]; PBS, same conditions",no release
same,reduction of myocardial infarct size per area-at-risk,[2]; [6],67%
same,reduction of myocardial infarct size per left ventricle,[2]; [6],67%
same,left ventricular fractional shortening versus vehicle group,[2]; [7],significantly (p<0.02) greater
same,myocardial ejection fraction versus baseline,[2]; [7],remained essentially unchanged
same,decrease in pulmonary artery pressure from infusion baseline,[3],23±6%
same,calculated blood level at which a protective effect was observed,[4]; 1.2 nmoles added nitrite,600 nM
same,calculated systemic concentration of peak effect on AST and ALT,"[4]; 48 nmoles added nitrite, 2 mL blood volume",24 µM
same,hepatocellular injury (histopathology) at 24 hours of reperfusion,"[4]; 24 μM (48 nmoles), versus saline and nitrate treated animals",significantly reduced
same,hepatocellular apoptosis (TUNEL),"[4]; 45 minutes ischemia, 24 hours reperfusion",significantly (p<0.001) attenuated
same,tissue injury in mice pre-treated with ZnDPBG (serum AST),"[4]; heme oxygenase 1 inhibitor pre-treatment, nitrite 24 μM",significantly limited tissue injury
same,near-physiological nitrite concentration with highly significant protective effects,[4]; hepatic I/R,0.6 μM
same,serum elevations of liver transaminases AST and ALT,"[4]; intraperitoneal during hepatic ischemia, 45 min ischemia, 5 h reperfusion, nitrite 1.2-480 nmoles, nitrate 48 nmoles",dose-dependently limited
same,cytoprotection in eNOS deficient mice (serum AST),"[4]; mouse, in vivo",significant nitrite cytoprotection
same,blood levels of nitrite,[5]; 45 mg/kg and 60 mg/kg per day,10 to 60 µM
same,increases in blood methemoglobin concentrations,[5]; 45 mg/kg and 60 mg/kg per day,≤ 2%
same,methemoglobin formation,[5]; 45 mg/kg and 60 mg/kg per day,< 5%
same,mean reduction in the R MCA area on day 7 after SAH,"[5]; 45 mg/kg and 60 mg/kg per day i.v. for 14 days, saline 45±5",8±9%
same,systemic hypotension,[5]; 14 days infusion,without systemic hypotension
same,toxicity,[5]; 14 days infusion,no clinical or pathological evidence of nitrite toxicity
same,development of significant vasospasm,"[5]; nitrite infused animals, n=6",no animals developed significant vasospasm
